Measured values taken from US20170119034A1, “COMPOSITIONS AND METHODS FOR MODIFYING PERCEPTION OF SWEET TASTE” (University of Florida Research Foundation, Inc., priority 2012, published 2017).

Legend:
[1] = tested on: perceived sweetness of tomato fruit (consumer panel); details: analysis of a volatile subset (Tieman 2012); cited from earlier work
[2] = tested on: tomato flavor intensity (consumer panel); assay: Tomato consumer taste panel: overall tomato flavor intensity (gLMS) versus fruit chemical content; type: in vivo, human; details: for association with flavor intensity: univariate models
Procedure: (§1) Sensory analysis. Fully ripe fruit were harvested, and used for taste panels. A random subset of fruit was used for biochemical analysis. Three biological replicates, each consisting of 2-20 fruit (depending on fruit size), were assayed for each variety. […] Panelists were between the ages of 18 and 78 with a median age of 22. […] An average of 85 (range of 66-95) of these panelists evaluated between 4-6 varieties in a session. All panelists went through a training session to familiarize them with the scaling and procedures. Tomatoes were sliced into wedges (or in halves for grape/cherry types) and each panelist was given two pieces for evaluation. Panelists took a bite of each sample, chewed and swallowed it, and rated overall liking and liking for texture. They then rated the perceived intensities of sweetness, sourness, saltiness, umami sensation, bitterness and overall tomato flavor. They were free to take as many bites as necessary to complete the assessments. They were instructed to take a bite of an unsalted cracker and a sip of water between samples. Samples were presented to the panelists in a randomized order. Hedonic ratings used the hedonic gLMS. This scale assesses the liking for tomatoes in the context of all pleasure/displeasure experiences: 0=neutral, −100=strongest disliking of any kind experienced, and +100=strongest liking of any kind experienced. Sensory intensity ratings used the gLMS (7, 8, 19).This scale assesses taste and flavor sensations in the context of all sensory experience (7): 0=no sensation, 100=strongest sensation of any kind experienced. Both scales were devised to provide valid comparisons across subjects.
(§2) Statistical analysis. The 68 chemical compounds measured in this experiment were divided into six groups based upon biochemical properties: sugars, branched chain amino acids, lipids, carotenoids, phenolics, and acids. A small number of compounds for which biosynthetic pathways are not established were assigned to one of the six classes based upon their correlations with other classified compounds. All pairwise correlations among the set of 68 compounds were calculated. Correlation coefficients were sorted using Modulated Modularity Clustering (MMC) (9) as a visual aid for identifying compounds that are closely related in this sample (FIG. 1; Table 4). Biochemical groups were examined for compounds within the group that were highly correlated and compounds that were upstream in the relevant metabolic pathways were preferentially selected.
(§3) All analyses were performed in SAS v 9.2.

[3] = tested on: perceived sweetness of tomato fruit (consumer panel); assay: Tomato consumer taste panel: perceived sweetness (gLMS) regressed on fruit chemical content; type: in vivo, human; details: tomato; for correlation with sweetness: direction of correlation; for contribution to perceived sweetness: multiple regression analysis using the volatiles; for association with sweetness: univariate models
Procedure: as §1, §2, §3
In conducting the multiple regression analysis on the tomato data set, the independent variables were the sugar content (glucose+fructose), and the flavor (indicated by the retronasal perception of volatiles), while the dependent variable was the perceived sweetness.

[4] = tested on: perceived sourness of tomato fruit (consumer panel); assay: Tomato consumer taste panel: sourness intensity versus fruit chemical content; type: in vivo, human; details: volatile-induced sourness independent of citric acid
Procedure: Sensory analysis. Fully ripe fruit were harvested, and used for taste panels. A random subset of fruit was used for biochemical analysis. Three biological replicates, each consisting of 2-20 fruit (depending on fruit size), were assayed for each variety. A group of 170 tomato consumers (64 male, 106 female) were recruited to evaluate all the varieties. Panelists were between the ages of 18 and 78 with a median age of 22. Panelists self-classified themselves as 101 White/Caucasian, 14 Black/African-American, 32 Asian/Pacific and […]. An average of 85 (range of 66-95) of these panelists evaluated between 4-6 varieties in a session. All panelists went through a training session to familiarize them with the scaling and procedures. Tomatoes were sliced into wedges (or in halves for grape/cherry types) and each panelist was given two pieces for evaluation. Panelists took a bite of each sample, chewed and swallowed it, and rated overall liking and liking for texture. They then rated the perceived intensities of sweetness, sourness, saltiness, umami sensation, bitterness and overall tomato flavor. They were free to take as many bites as necessary to complete the assessments. They were instructed to take a bite of an unsalted cracker and a sip of water between samples. Samples were presented to the panelists in a randomized order. Hedonic ratings used the hedonic gLMS. […]

CC(C)=CCC/C(C)=C/C=O [geranial]
enhancing sweetness intensity independent of fructose [1]: enhancing sweetness intensity independent of fructose | association with flavor intensity [2]: associated with flavor intensity in univariate models | association with sweetness after accounting for fructose [3]: independent predictors of sweetness after accounting for fructose | correlation with sweetness [3]: positively correlated with sweetness | contribution to perceived sweetness [3]: positive contributor to perceived sweetness | association with sweetness [3]: showed evidence for association with sweetness in univariate models

CC(C)CCO [3-methyl-1-butanol]
enhancing sweetness intensity independent of fructose [1]: enhancing sweetness intensity independent of fructose | association with flavor intensity after accounting for fructose ([2]; listed as 3-methyl-1-butenol): independently significant after accounting for fructose | association with flavor intensity [2]: associated with flavor intensity in univariate models | association with sweetness after accounting for fructose [3]: independent predictors of sweetness after accounting for fructose | association with sweetness [3]: showed evidence for association with sweetness in univariate models

CCC(C)C=O (stereo not shown) [2-methylbutanal]
enhancing sweetness intensity independent of fructose [1]: enhancing sweetness intensity independent of fructose | association with flavor intensity after accounting for fructose [2]: independently significant after accounting for fructose | association with flavor intensity [2]: associated with flavor intensity in univariate models | contribution to sourness [4]: contributed to this sourness | association with sweetness after accounting for fructose [3]: independent predictors of sweetness after accounting for fructose | correlation with sweetness [3]: negatively correlated with sweetness | contribution to perceived sweetness [3]: inhibitory effect | association with sweetness [3]: showed evidence for association with sweetness in univariate models
